Laboratory results taken from the supplement of paper PMC10307832.

Legend:
Test in all cases: relative viability (nuclei count vs DMSO), 5 days (fraction); higher = more cells survive
Neratinib + Lapatinib = compound: CCOc1cc2ncc(C#N)c(Nc3ccc(OCc4ccccn4)c(Cl)c3)c2cc1NC(=O)/C=C/CN(C)C [Neratinib] + CS(=O)(=O)CCNCc1ccc(-c2ccc3ncnc(Nc4ccc(OCc5cccc(F)c5)c(Cl)c4)c3c2)o1 [Lapatinib] (partner 2 µM)
Method in brief: (§1)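 Cells from lung cancer lines were seeded into 1536-well plates and, one day later, dosed by pin tool. Treatments were either a single drug or a fixed dose of an anchor drug with five library-drug doses (not always all listed) in √10 steps. After 5 days, nuclei were stained in a one-step fixation (final 0.05% Triton X-100, 1% formaldehyde, 1 ug/ml Hoechst) and counted on 4× images, and relative viability is the treated-to-vehicle nuclei ratio, as the median of duplicate plates.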

Neratinib + Crizotinib = compound: CCOc1cc2ncc(C#N)c(Nc3ccc(OCc4ccccn4)c(Cl)c3)c2cc1NC(=O)/C=C/CN(C)C [Neratinib] + C[C@@H](Oc1cc(-c2cnn(C3CCNCC3)c2)cnc1N)c1c(Cl)ccc(F)c1Cl [Crizotinib] (partner 1 µM)
Method in brief: as §1

Neratinib + Dasatinib = compound: CCOc1cc2ncc(C#N)c(Nc3ccc(OCc4ccccn4)c(Cl)c3)c2cc1NC(=O)/C=C/CN(C)C [Neratinib] + Cc1nc(Nc2ncc(C(=O)Nc3c(C)cccc3Cl)s2)cc(N2CCN(CCO)CC2)n1 [Dasatinib] (partner 0.075 µM)
Method in brief: as §1

Neratinib + Pemetrexed = compound: CCOc1cc2ncc(C#N)c(Nc3ccc(OCc4ccccn4)c(Cl)c3)c2cc1NC(=O)/C=C/CN(C)C [Neratinib] + Nc1nc2[nH]cc(CCc3ccc(C(=O)N[C@@H](CCC(=O)O)C(=O)O)cc3)c2c(=O)[nH]1 [Pemetrexed] (partner 0.2 µM)
Method in brief: as §1

| Cell Line | relative viability (Neratinib + Lapatinib; first compound 0.01 µM) | relative viability (Neratinib + Lapatinib; first compound 0.03162 µM) | relative viability (Neratinib + Lapatinib; first compound 0.1 µM) | relative viability (Neratinib + Lapatinib; first compound 0.3162 µM) | relative viability (Neratinib + Lapatinib; first compound 1 µM) | relative viability (Neratinib + Crizotinib; first compound 0.01 µM) | relative viability (Neratinib + Crizotinib; first compound 0.03162 µM) | relative viability (Neratinib + Crizotinib; first compound 0.1 µM) | relative viability (Neratinib + Crizotinib; first compound 0.3162 µM) | relative viability (Neratinib + Crizotinib; first compound 1 µM) | relative viability (Neratinib + Dasatinib; first compound 0.01 µM) | relative viability (Neratinib + Dasatinib; first compound 0.03162 µM) | relative viability (Neratinib + Dasatinib; first compound 0.1 µM) | relative viability (Neratinib + Dasatinib; first compound 0.3162 µM) | relative viability (Neratinib + Dasatinib; first compound 1 µM) | relative viability (Neratinib + Pemetrexed; first compound 0.01 µM) | relative viability (Neratinib + Pemetrexed; first compound 0.03162 µM) | relative viability (Neratinib + Pemetrexed; first compound 0.1 µM) | relative viability (Neratinib + Pemetrexed; first compound 0.3162 µM) | relative viability (Neratinib + Pemetrexed; first compound 1 µM) |
| --- | --- | --- | --- | --- | --- | --- | --- | --- | --- | --- | --- | --- | --- | --- | --- | --- | --- | --- | --- | --- |
| LK-2 | 1.28 | 1.2 | 0.95 | 0.664 | 0.578 | 0.209 | 0.191 | 0.206 | 0.211 | 0.253 | 0.28 | 0.275 | 0.354 | 0.258 | 0.218 | 0.318 | 0.464 | 0.265 | 0.221 | 0.151 |
| PC-14 | 0.365 | 0.327 | 0.267 | 0.285 | 0.302 |  | 0.851 | 0.796 | 0.662 | 0.356 | 0.22 | 0.265 | 0.195 | 0.0282 | 0.0541 | 0.128 | 0.118 | 0.14 | 0.141 | 0.0777 |
| NCI-H2342 |  |  |  |  |  |  |  |  |  |  | 0.326 | 0.318 | 0.285 | 0.26 | 0.318 | 0.722 | 0.774 | 0.714 | 0.564 | 0.497 |
| HCC-366 | 1.27 | 1.18 | 0.901 | 1.09 | 1.06 | 0.653 | 0.766 | 0.46 | 0.48 | 0.519 | 0.688 | 0.716 | 0.615 | 0.588 | 0.689 | 0.202 | 0.147 | 0.158 | 0.14 | 0.171 |
| HOP-62 |  |  | 0.879 | 0.825 | 1.21 | 1.07 | 1.05 | 0.806 | 0.932 | 0.958 | 0.636 | 0.67 | 0.602 | 0.686 | 0.676 | 0.323 | 0.31 | 0.206 |  | 0.241 |
| NCI-H1944 | 1.17 | 0.845 | 0.732 | 0.836 | 0.705 | 1.31 | 0.991 | 0.99 | 0.762 | 0.348 | 0.201 | 0.211 | 0.193 | 0.205 | 0.181 | 0.642 | 0.563 |  | 0.555 | 0.439 |
| NCI-H596 | 1.2 | 1.06 |  | 1.13 | 0.859 | 0.944 | 1.09 | 1.04 | 0.903 | 0.861 |  | 0.659 | 0.749 | 0.5 | 0.436 | 0.523 | 0.529 | 0.472 | 0.493 | 0.488 |
| LU99A | 1.04 | 1.05 | 0.692 | 0.587 | 0.385 | 0.513 | 0.586 | 0.472 | 0.527 | 0.32 | 0.636 | 0.352 | 0.551 | 0.51 | 0.278 | 0.185 | 0.194 | 0.155 | 0.21 | 0.188 |
| NCI-H727 | 0.898 | 0.994 |  | 0.928 | 0.786 | 0.844 | 1.02 |  | 0.597 | 0.423 | 0.36 | 0.359 | 0.335 | 0.333 | 0.225 |  |  |  |  |  |
| EBC-1 | 0.205 | 0.192 | 0.199 | 0.233 | 0.211 | 0.167 | 0.204 | 0.175 |  | 0.203 |  |  |  |  |  |  |  |  |  |  |
